The values below come from patent US4238500A, “Cyclic double hemiacetals of enediol compounds and compositions and methods for preparing and using same” (National Foundation for Cancer Research, priority 1979, dated 1980).

Each structure is given as a SMILES string.

Data set [1] concerns edema of the rat paw produced by carrageenan. The data set can be described thus: Carrageenan-induced edema of the rat paw. For orientation: Carrageenan injected into the paw causes an acute inflammation.
Protocol: In other experiments, edema of the rat paw was produced by intradermal injection of carrageenan (0.1 ml of 1% solution in saline).
In data set [2] the test system is capillary permeability produced by serotonin or histamine. Briefly: Increased capillary permeability by intradermal serotonin or histamine (trypan blue) in rats. The class given is in vivo. Particulars: 100 mg/kg i.p. 30 minutes before, serotonin 0.05 μg or histamine 1 μg intradermal. How it is done:
In one series of tests, rats were treated i.v. with trypan blue and then the increased capillary permeability produced by intradermal injection of serotonin (0.05 μg) or histamine (1 μg) was measured.
No effect of methylglyoxal-ascorbic acid compound or L-ascorbic acid could be found in this system.

The next data set concerns guinea pig ileum. The data set can be described thus: Effects on pain receptors: twitch height of coaxially stimulated guinea pig ileum. Particulars: Cavia porcellus, read-out: ED50 (50% reduction in twitch height).
A further data set concerns glyoxalase enzyme system. As to conditions: converted by glyoxalase to D-lactic acid in presence of reduced glutathione; cited from earlier work.
The subject of the next data set is viral disease. Particulars: cited from earlier work.
For data set [3], the system named is acute myelocytic leukemia. As to conditions: 13 patients with acute myelocytic leukemia; all then-current therapy 13%; cited from earlier work.
[4] abbreviates: 199 mg/kg i.p. versus indomethacin 3 mg/kg per os.

`O=C1O[C@H]([C@@H](O)CO)C(O)=C1O` [L-ascorbic acid]: the “anti-inflammatory activity (rat paw edema)” value in data set [1] (199 mg/kg i.p. 60 minutes prior to carrageenan) is recorded as “somewhat anti-inflammatory”. Besides, in data set [1] (setting [4]), the “activity compared with indomethacin” value is on record as “far less active than indomethacin” and the “ratio of effectiveness (indomethacin versus compound)” value is “approximately 200”. For the same compound, in data set [2], the “effect on increased capillary permeability” value is “No effect”. For the same compound, the IC50 in the data set with guinea pig ileum came out at 32 mM.
For the compound `CC(=O)C=O` [methylglyoxal], the lability in vivo entry in the data set with glyoxalase enzyme system is listed as “extremely labile in vivo”. For the same compound, the IC50 in the data set on guinea pig ileum turned out to be 8 mM.
With `O=CC(=O)Cc1ccccc1` [benzylglyoxal], the antiviral activity result in the data set on viral disease was “have antiviral activity”.
Consider `CC(C=NNC(=N)N)=NNC(=N)N` [methylglyoxal bis(guanylhydrazone)], for which the complete remission frequency in data set [3] is on record as 69%.
Turning to `O=CC(=O)C1CCCCC1` [cyclohexylglyoxal], the antiviral activity entry in the data set on viral disease is given as “have antiviral activity”.
